Test results published in patent US20020165127A1, “Methods for treating insulin resistance and identifying patients at risk for the disease” (SuperGen, Inc., priority 1996, published 2002).

Assays:
[1] = test system: patient suffering from reactive hypoglycemia; test: Treatment of reactive hypoglycemia; type: in vivo, human; conditions: long-acting controlled release formulation; for IGF-2 levels: serum
Experimental: A patient suffering from reactive hypoglycemia has a serum sample evaluated for IGF-1 and IGF-2 levels. IGF-1 levels are normal but IGF-2 levels are more than two standard deviations below the expected levels for a person of the same age, sex and body weight. The patient is treated by administering IGF-2 or 22K-GH in a long-acting controlled release formulation.

IGF-1 and IGF-2 = conditions: cited from earlier work
bp3 = bp3 (Homo sapiens, UniProt P17936); conditions: cited from earlier work
bp3, sequence (P17936 28-291): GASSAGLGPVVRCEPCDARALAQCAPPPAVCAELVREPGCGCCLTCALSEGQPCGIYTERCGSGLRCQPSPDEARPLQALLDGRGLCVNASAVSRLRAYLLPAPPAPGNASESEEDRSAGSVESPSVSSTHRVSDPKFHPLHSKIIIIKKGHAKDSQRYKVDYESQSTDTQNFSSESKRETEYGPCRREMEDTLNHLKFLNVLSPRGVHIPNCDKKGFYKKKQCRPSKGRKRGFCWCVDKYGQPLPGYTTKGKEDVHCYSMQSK

Substance	hypoglycemic episodes [1]	IGF-2 levels [1]	effects on the synthesis and secretion of IGFs (IGF-1 and IGF-2)	affinity to bp3 (bp3)
22K-GH: the larger human growth hormone isoform	less frequent	increased	stimulate both IGF-1 and IGF-2	
IGF-1: IGF polypeptide in serum that binds bp3				equal affinity
IGF-2: IGF polypeptide; competes with insulin for binding to the insulin receptor	less frequent	increased		equal affinity
